From patent publication US20090036448A1, “PYRIMIDINE DERIVATIVES AND METHODS OF TREATMENT RELATED TO THE USE THEREOF” (TAISHO PHARMECUTICAL CO., LTD., priority 2004, published 2009)

Molecular target: MCH receptor (Homo sapiens, UniProt Q99705)
Test: Receptor binding assay with Radiolabelled MCH Ligand
Set-up: expressed in transfected cells; host or cells: 293 cells (human kidney, ATCC), transient transfection; crude membranes
Details: class by percent of control at 10^-7 M or IC50
How it was run: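 Membranes from 293 cells transiently transfected with human MCH receptor competed test compounds against a radiolabelled MCH ligand in Tris-HCl pH 7.4 with MgCl2 and EDTA for 60–120 min at room temperature. Filtration and scintillation counting followed, with cold MCH defining nonspecific binding. IC50 came from logit-log plots of %B/B0, and Ki from the Cheng-Prusoff equation.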

Chain of MCH receptor (Q99705 whole entry): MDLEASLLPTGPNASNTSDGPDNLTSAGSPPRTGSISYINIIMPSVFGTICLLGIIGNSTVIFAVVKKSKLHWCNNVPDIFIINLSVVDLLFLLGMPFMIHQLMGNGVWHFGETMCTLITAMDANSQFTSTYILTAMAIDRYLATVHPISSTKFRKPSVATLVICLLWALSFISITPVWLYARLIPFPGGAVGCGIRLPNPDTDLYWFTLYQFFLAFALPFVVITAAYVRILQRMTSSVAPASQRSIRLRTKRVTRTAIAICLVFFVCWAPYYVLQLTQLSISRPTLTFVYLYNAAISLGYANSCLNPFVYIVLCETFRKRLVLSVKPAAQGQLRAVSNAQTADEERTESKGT

SMILES | class
COc1ccc(NC(=S)N[C@H]2CC[C@@H](Nc3cc(N(C)C)nc(C)n3)CC2)c(OC)c1 [compound 444] | 3 (Class 3: The value of percent of control at 10^−7 M was more than 60% or the value of IC50 was more than 200 nM.)
COc1ccc(NC(=S)N[C@H]2CC[C@@H](Nc3cc(N(C)C)nc(C)n3)CC2)cc1OC [compound 445] | 3 (Class 3: The value of percent of control at 10^−7 M was more than 60% or the value of IC50 was more than 200 nM.)
CCOc1ccccc1NC(=S)N[C@H]1CC[C@@H](Nc2cc(N(C)C)nc(C)n2)CC1 [compound 446] | 3 (Class 3: The value of percent of control at 10^−7 M was more than 60% or the value of IC50 was more than 200 nM.)
Cc1nc(N[C@H]2CC[C@@H](NC(=S)Nc3c(Br)cc(Br)cc3Br)CC2)cc(N(C)C)n1 [compound 447, N-(cis-4-{[6-(dimethylamino)-2-methylpyrimidin-4-yl]amino}cyclohexyl)-N′-(2,4,6-tribromophenyl)thiourea] | 1 (Class 1: The value of percent of control at 10^−7 M was less than 40% or the value of IC50 was less than 50 nM.)
Cc1nc(N[C@H]2CC[C@@H](NC(=S)Nc3c(F)cc(Br)cc3Br)CC2)cc(N(C)C)n1 [compound 448] | 3 (Class 3: The value of percent of control at 10^−7 M was more than 60% or the value of IC50 was more than 200 nM.)
Cc1nc(N[C@H]2CC[C@@H](NC(=S)Nc3ccc(I)cc3)CC2)cc(N(C)C)n1 [compound 449] | 3 (Class 3: The value of percent of control at 10^−7 M was more than 60% or the value of IC50 was more than 200 nM.)
Cc1nc(N[C@H]2CC[C@@H](NC(=S)Nc3ccc(C#N)cc3)CC2)cc(N(C)C)n1 [compound 450] | 3 (Class 3: The value of percent of control at 10^−7 M was more than 60% or the value of IC50 was more than 200 nM.)
COC(=O)c1scc(C)c1NC(=S)N[C@H]1CC[C@@H](Nc2cc(N(C)C)nc(C)n2)CC1 [compound 451] | 3 (Class 3: The value of percent of control at 10^−7 M was more than 60% or the value of IC50 was more than 200 nM.)
Cc1nc(N[C@H]2CC[C@@H](NC(=O)OCC(C)(C)C)CC2)cc(N(C)C)n1 [compound 452] | 3 (Class 3: The value of percent of control at 10^−7 M was more than 60% or the value of IC50 was more than 200 nM.)
COc1cc(COC(=O)N[C@H]2CC[C@@H](Nc3cc(N(C)C)nc(C)n3)CC2)c([N+](=O)[O-])cc1OC [compound 453] | 3 (Class 3: The value of percent of control at 10^−7 M was more than 60% or the value of IC50 was more than 200 nM.)
Cc1nc(N[C@H]2CC[C@@H](NC(=O)Oc3cccc(C(F)(F)F)c3)CC2)cc(N(C)C)n1 [compound 454] | 3 (Class 3: The value of percent of control at 10^−7 M was more than 60% or the value of IC50 was more than 200 nM.)
Cc1nc(N[C@H]2CC[C@@H](NC(=O)Oc3ccc(Br)cc3)CC2)cc(N(C)C)n1 [compound 455, 4-bromophenyl (cis-4-{[6-(dimethylamino)-2-methylpyrimidin-4-yl]amino}cyclohexyl)carbamate] | 3 (Class 3: The value of percent of control at 10^−7 M was more than 60% or the value of IC50 was more than 200 nM.)
COc1ccccc1OC(=O)N[C@H]1CC[C@@H](Nc2cc(N(C)C)nc(C)n2)CC1 [compound 456] | 3 (Class 3: The value of percent of control at 10^−7 M was more than 60% or the value of IC50 was more than 200 nM.)
COCCOC(=O)N[C@H]1CC[C@@H](Nc2cc(N(C)C)nc(C)n2)CC1 [compound 457] | 3 (Class 3: The value of percent of control at 10^−7 M was more than 60% or the value of IC50 was more than 200 nM.)
CCCCCCCCOC(=O)N[C@H]1CC[C@@H](Nc2cc(N(C)C)nc(C)n2)CC1 [compound 458] | 3 (Class 3: The value of percent of control at 10^−7 M was more than 60% or the value of IC50 was more than 200 nM.)
CCOC(=O)N[C@H]1CC[C@@H](Nc2cc(N(C)C)nc(C)n2)CC1 [compound 459] | 3 (Class 3: The value of percent of control at 10^−7 M was more than 60% or the value of IC50 was more than 200 nM.)
Cc1nc(N[C@H]2CC[C@@H](NC(=O)OCc3ccc([N+](=O)[O-])cc3)CC2)cc(N(C)C)n1 [compound 460] | 3 (Class 3: The value of percent of control at 10^−7 M was more than 60% or the value of IC50 was more than 200 nM.)
Cc1nc(N[C@H]2CC[C@@H](NC(=O)Oc3ccc4ccccc4c3)CC2)cc(N(C)C)n1 [compound 461] | 3 (Class 3: The value of percent of control at 10^−7 M was more than 60% or the value of IC50 was more than 200 nM.)
C=CCOC(=O)N[C@H]1CC[C@@H](Nc2cc(N(C)C)nc(C)n2)CC1 [compound 462] | 3 (Class 3: The value of percent of control at 10^−7 M was more than 60% or the value of IC50 was more than 200 nM.)
Cc1nc(N[C@H]2CC[C@@H](NC(=O)OCc3ccccc3)CC2)cc(N(C)C)n1 [compound 463] | 3 (Class 3: The value of percent of control at 10^−7 M was more than 60% or the value of IC50 was more than 200 nM.)

SMILES | class
Cc1nc(N[C@H]2CC[C@@H](NC(=O)Oc3ccccc3)CC2)cc(N(C)C)n1 [compound 464, phenyl (cis-4-{[6-(dimethylamino)-2-methylpyrimidin-4-yl]amino}cyclohexyl)carbamate] | 3 (Class 3: The value of percent of control at 10^−7 M was more than 60% or the value of IC50 was more than 200 nM.)
Cc1nc(N[C@H]2CC[C@@H](NC(=O)OC3C[C@H](C)CC[C@H]3C(C)C)CC2)cc(N(C)C)n1 (stereo partly shown) [compound 465] | 3 (Class 3: The value of percent of control at 10^−7 M was more than 60% or the value of IC50 was more than 200 nM.)
Cc1ccc(OC(=O)N[C@H]2CC[C@@H](Nc3cc(N(C)C)nc(C)n3)CC2)cc1 [compound 466] | 3 (Class 3: The value of percent of control at 10^−7 M was more than 60% or the value of IC50 was more than 200 nM.)
COC(=O)N[C@H]1CC[C@@H](Nc2cc(N(C)C)nc(C)n2)CC1 [compound 467] | 3 (Class 3: The value of percent of control at 10^−7 M was more than 60% or the value of IC50 was more than 200 nM.)
Cc1nc(N[C@H]2CC[C@@H](NC(=O)OCc3ccccc3Cl)CC2)cc(N(C)C)n1 [compound 468] | 3 (Class 3: The value of percent of control at 10^−7 M was more than 60% or the value of IC50 was more than 200 nM.)
Cc1nc(N[C@H]2CC[C@@H](NC(=O)OCC3c4ccccc4-c4ccccc43)CC2)cc(N(C)C)n1 [compound 469] | 3 (Class 3: The value of percent of control at 10^−7 M was more than 60% or the value of IC50 was more than 200 nM.)
Cc1nc(N[C@H]2CC[C@@H](NC(=O)OCC(Cl)(Cl)Cl)CC2)cc(N(C)C)n1 [compound 470] | 3 (Class 3: The value of percent of control at 10^−7 M was more than 60% or the value of IC50 was more than 200 nM.)
Cc1nc(N[C@H]2CC[C@@H](NS(=O)(=O)/C=C/c3ccccc3)CC2)cc(N(C)C)n1 [compound 471] | 3 (Class 3: The value of percent of control at 10^−7 M was more than 60% or the value of IC50 was more than 200 nM.)
Cc1nc(N[C@H]2CC[C@@H](NS(=O)(=O)Cc3cccc(C(F)(F)F)c3)CC2)cc(N(C)C)n1 [compound 472] | 3 (Class 3: The value of percent of control at 10^−7 M was more than 60% or the value of IC50 was more than 200 nM.)
Cc1nc(N[C@H]2CC[C@@H](NS(=O)(=O)Cc3ccc(Cl)c(Cl)c3)CC2)cc(N(C)C)n1 [compound 473] | 3 (Class 3: The value of percent of control at 10^−7 M was more than 60% or the value of IC50 was more than 200 nM.)
Cc1nc(N[C@H]2CC[C@@H](NS(=O)(=O)Cc3ccc(F)cc3)CC2)cc(N(C)C)n1 [compound 474, N-(cis-4-{[6-(dimethylamino)-2-methylpyrimidim-4-yl]amino}cyclohexyl)-1-(4-fluorophenyl)methanesulfonamide] | 3 (Class 3: The value of percent of control at 10^−7 M was more than 60% or the value of IC50 was more than 200 nM.)
Cc1nc(N[C@H]2CC[C@@H](NS(=O)(=O)Cc3ccccc3[N+](=O)[O-])CC2)cc(N(C)C)n1 [compound 475] | 3 (Class 3: The value of percent of control at 10^−7 M was more than 60% or the value of IC50 was more than 200 nM.)
Cc1nc(N[C@H]2CC[C@@H](NS(=O)(=O)Cc3ccccc3)CC2)cc(N(C)C)n1 [compound 476] | 3 (Class 3: The value of percent of control at 10^−7 M was more than 60% or the value of IC50 was more than 200 nM.)
Cc1nc(N[C@H]2CC[C@@H](NS(=O)(=O)CCc3cccc4ccccc34)CC2)cc(N(C)C)n1 [compound 477] | 3 (Class 3: The value of percent of control at 10^−7 M was more than 60% or the value of IC50 was more than 200 nM.)
Cc1nc(N[C@H]2CC[C@@H](NS(C)(=O)=O)CC2)cc(N(C)C)n1 [compound 478] | 3 (Class 3: The value of percent of control at 10^−7 M was more than 60% or the value of IC50 was more than 200 nM.)
Cc1nc(N[C@H]2CC[C@@H](NS(=O)(=O)C(C)C)CC2)cc(N(C)C)n1 [compound 479] | 3 (Class 3: The value of percent of control at 10^−7 M was more than 60% or the value of IC50 was more than 200 nM.)
CCCCCCCCS(=O)(=O)N[C@H]1CC[C@@H](Nc2cc(N(C)C)nc(C)n2)CC1 [compound 480] | 3 (Class 3: The value of percent of control at 10^−7 M was more than 60% or the value of IC50 was more than 200 nM.)
COC(=O)c1ccccc1S(=O)(=O)N[C@H]1CC[C@@H](Nc2cc(N(C)C)nc(C)n2)CC1 [compound 481] | 3 (Class 3: The value of percent of control at 10^−7 M was more than 60% or the value of IC50 was more than 200 nM.)
C=Cc1ccc(S(=O)(=O)N[C@H]2CC[C@@H](Nc3cc(N(C)C)nc(C)n3)CC2)cc1 [compound 482] | 3 (Class 3: The value of percent of control at 10^−7 M was more than 60% or the value of IC50 was more than 200 nM.)
Cc1nc(N[C@H]2CC[C@@H](NS(=O)(=O)c3cccc(C(F)(F)F)c3)CC2)cc(N(C)C)n1 [compound 483] | 3 (Class 3: The value of percent of control at 10^−7 M was more than 60% or the value of IC50 was more than 200 nM.)
